# Assay: in vitro
# Conditions: human
row,Structure (SMILES),CC50
1,"CC(C)c1ccc2c(c1)OC1(O)c3ccccc3/C(=N\N)C21O (centres unmarked) [Example 152, 10-Hydrazono-7-isopropyl-9b,10-dihydro-4bH-benzo[d]indeno[1,2-b]furan-4b,9b-diol]",10.5 µg/mL
2,"CC(C)c1cc(C(C)C)c2c(c1)C1(O)C(=O)c3c(N)cccc3C1(O)O2 (centres unmarked) [Example 157, 1-Amino-4b,9b-dihydroxy-6,8-diisopropyl-4bH-benzo[d]indeno[1,2-b]furan-10(9bH)-one]",28.5 µg/mL
3,COc1ccc(NC(=O)NC23C(=O)c4c(N)cccc4C2(O)Oc2cc(C(C)C)ccc23)cc1 (centres unmarked) [Example 162],> 10 µg/mL
4,"CCCCNC(=O)NC12C(=O)c3c(N)cccc3C1(O)Oc1cc(C(C)C)ccc12 (centres unmarked) [Example 163, 1-(1-Amino-4b-hydroxy-7-isopropyl-10-oxo-9b,10-dihydro-4bH-indeno[1,2-b]benzofuran-9b-yl)-3-butylurea]",> 10 µg/mL
5,"CC(C)c1ccc2c(c1)OC1(O)c3cccc(N)c3C(=O)C21NC(=O)Nc1ccc(F)cc1 (centres unmarked) [Example 164, 1-(1-Amino-4b-hydroxy-7-isopropyl-10-oxo-9b,10-dihydro-4bH-indeno[1,2-b]benzofuran-9b-yl)-3-(4-fluorophenyl)urea]",> 10 µg/mL
6,CC(C)c1ccc2c(c1)OC1(O)c3cccc(N)c3C(=O)C21NC(=O)NC(C)(C)C (centres unmarked) [Example 165],> 10 µg/mL
7,"CC(=O)NC12C(=O)c3c(NC=O)cccc3C1(O)Oc1cc(C(C)C)ccc12 (centres unmarked) [Example 167, N-(1-Formamido-4b-hydroxy-7-isopropyl-10-oxo-9b,10-dihydro-4bH-benzo[d]-indeno[1,2-b]furan-9b-yl)acetamide]",> 10 µg/mL
8,"CC(C)c1ccc2c(c1)OC1(O)c3cccc(N)c3C(=O)C21NS(C)(=O)=O (centres unmarked) [Example 168, N-(1-Amino-4b-hydroxy-7-isopropyl-10-oxo-9b,10-dihydro-4bH-benzo[d]indeno[1,2-b]furan-9b-yl)methanesulfonamide]",> 10 µg/mL
9,"CCOP(=O)(NC12C(=O)c3c(N)cccc3C1(O)Oc1cc(C(C)C)ccc12)OCC (centres unmarked) [Example 169, Diethyl (1-amino-4b-hydroxy-7-isopropyl-10-oxo-9b,10-dihydro-4bH-indeno[1,2-b]benzofuran-9b-yl)phosphoamidate]",> 10 µg/mL
10,CC(C)c1ccc2c(c1)OC1(O)c3cccc(N)c3C(=O)C21NC(=O)c1ccc(-c2ccccc2)cc1 (centres unmarked) [Example 172],> 10 µg/mL
11,CCNC(=O)NC12C(=O)c3c(N)cccc3C1(O)Oc1cc(C(C)C)ccc12 (centres unmarked) [Example 173],> 10 µg/mL
12,"CC(C)c1ccc2c(c1)OC1(O)c3cccc(N)c3C(=O)C21NS(=O)(=O)C(F)(F)F (centres unmarked) [Example 176, N-(1-Amino-4b-hydroxy-7-isopropyl-10-oxo-9b,10-dihydro-4bH-benzo[d]indeno[1,2-b]furan-9b-yl)-1,1,1-trifluoromethanesulfonamide]",> 10 µg/mL
13,"CC(C)c1ccc2c(c1)OC1(O)c3ccccc3C(=O)C21NC=O (centres unmarked) [Example 177, N-(4b-hydroxy-7-isopropyl-10-oxo-9b,10-dihydro-4bH-indeno[1,2-b]benzofuran-9b-yl)formamide]",> 10 µg/mL
14,"O=C1c2ccccc2C2(O)Oc3ccccc3C12NS(=O)(=O)C(F)(F)F (centres unmarked) [Example 178, 1,1,1-Trifluoro-N-(4b-hydroxy-10-oxo-9b,10-dihydro-4bH-benzo[d]indeno[1,2-b]furan-9b-yl)methanesulfonamide]",> 10 µg/mL
15,"CC(C)c1ccc2c(c1)OC1(O)c3cccc(N)c3C(=O)C21NC(=O)Cc1ccc(-c2ccccc2)cc1 (centres unmarked) [Example 182, 2-([1,1′-Biphenyl]-4-yl)-N-(1-amino-4b-hydroxy-7-isopropyl-10-oxo-9b,10-dihydro-4bH-indeno[1,2-b]benzofuran-9b-yl)acetamide]",5.85 µg/mL

# Same assay, conditions: human, Picorana CC50
row,Structure (SMILES),CC50
1,"CC(=O)NC12C(=O)c3ccccc3C1(OC(=O)Oc1ccccc1)Oc1cc(C(C)C)ccc12 (centres unmarked) [Example 121, Carbonic acid 9b-acetylamino-7-isopropyl-10-oxo-9b,10-dihydro-5-oxa-indeno[2,1-a]inden-4b-yl ester phenyl ester]",> 50 µg/mL
2,"CC(C)c1ccc2c(c1)OC1(OC(=S)Nc3ccccc3)c3ccccc3C(=O)C21N=[N+]=[N-] (centres unmarked) [Example 122, Phenyl-thiocarbamic acid O-(9b-azido-7-isopropyl-10-oxo-9b,10-dihydro-5-oxa-indeno[2,1-a]inden-4b-yl) ester]",12 µg/mL
3,CCC(=O)NC12Oc3cc(C(C)C)ccc3C1(NC(=O)CC)C(=O)c1ccccc12 (centres unmarked) [Example 124],> 50 µg/mL
4,CC(C)C(=O)NC12Oc3cc(C(C)C)ccc3C1(NC(=O)C(C)C)C(=O)c1ccccc12 (centres unmarked) [Example 125],45.5 µg/mL
5,"CC(C)c1ccc2c(c1)OC1(O)c3cccnc3C(=O)C21O (centres unmarked) [Example 126, 4b,9b-Dihydroxy-7-isopropyl-4bH-benzofuro[2′,3′:3,4]cyclopenta[1,2-b]pyridin-10(9bH)-one]",47.1 µg/mL
6,"CC(=O)OC12Oc3cc(C(C)C)ccc3C1(OC(C)=O)C(O)c1ccccc12 (centres unmarked) [Example 127, 10-Hydroxy-7-isopropyl-9b,10-dihydro-4bH-indeno[1,2-b]benzofurane-4b,9b-diyl diacetate]",37.6 µg/mL
7,"CO/N=C1/c2ccccc2C2(NOC)Oc3cc(C(C)C)ccc3C12O (centres unmarked) [Example 128, 9b-Hydroxy-7-isopropyl-4b-(methoxyamino)-4bH-indeno[1,2-b]benzofuran-10(9bH)-one O-methyl oxime]",37.3 µg/mL
8,"C=C1c2ccccc2C2(OC)Oc3cc(C(C)C)ccc3C12O (centres unmarked) [Example 129, 7-Isopropyl-4b-methoxy-10-methylene-9b,10-dihydro-4bH-indeno[1,2-b]benzofuran-9b-ol]",6.79 µg/mL
9,"CO/N=C1/c2ccccc2C2(OC)Oc3cc(C(C)C)ccc3C12O (centres unmarked) [Example 130, 9b-Hydroxy-7-isopropyl-4b-methoxy-4bH-indeno[1,2-b]benzofuran-10(9bH)-one O-methyl oxime]",> 50 µg/mL
10,"CC(C)c1ccc2c(c1)OC1(O)c3cccc(NCc4ccccc4)c3C(=O)C21O (centres unmarked) [Example 132, 1-(Benzylamino)-4b,9b-dihydroxy-7-isopropyl-4bH-indeno[1,2-b]benzofuran-10(9bH)-one]",0.72 µg/mL
11,"CCNc1cccc2c1C(=O)C1(O)c3ccc(C(C)C)cc3OC21O (centres unmarked) [Example 133, 1-(Ethylamino)-4b,9b-dihydroxy-7-isopropyl-4bH-indeno[1,2-b]benzofuran-10(9bH)-one]",1.58 µg/mL
12,"CC(C)c1ccc2c(c1)OC1(C)c3ccccc3C(=O)C21O (centres unmarked) [Example 134, 9b-Hydroxy-7-isopropyl-4b-methyl-4bH-indeno[1,2-b]benzofuran-10(9bH)-one]",6.69 µg/mL
13,"CC(C)c1ccc2c(c1)OC1(O)c3ccccc3C(C)C21O (centres unmarked) [Example 136, 7-Isopropyl-10-methyl-9b,10-dihydro-4bH-indeno[1,2-b]benzofuran-4b,9b-diol]",7.8 µg/mL
14,"CC(=O)NC12C(=O)c3c(Br)cccc3C1(O)Oc1cc(C(C)C)ccc12 (centres unmarked) [Example 137, N-(1-Bromo-4b-hydroxy-7-isopropyl-10-oxo-9b,10-dihydro-4bH-indeno[1,2-b]benzofuran-9b-yl)acetamide]",40 µg/mL
15,"COc1cc2c(cc1OC)C1(O)C(=O)c3ccccc3C1(O)N2C(=O)C(C)C (centres unmarked) [Example 138, 4b,9b-Dihydroxy-5-isobutyryl-7,8-dimethoxy-5,9b-dihydro-4bH-indeno[1,2-b]indol-10-one]",38.8 µg/mL
16,"CC(C)c1ccc2c(c1)OC1(O)c3ccc(N4CCCCC4)cc3C(=O)C21O (centres unmarked) [Example 139, 4b,9b-Dihydroxy-7-isopropyl-2-piperidinyl-4bH-benzo[d]indeno[1,2-b]furan-10(9bH)-one]",0.45 µg/mL
17,"CC(C)c1ccc2c(c1)OC1(O)c3ccc(N4CCOCC4)cc3C(=O)C21O (centres unmarked) [Example 140, 4b,9b-Dihydroxy-7-isopropyl-2-morpholinyl-4bH-benzo[d]indeno[1,2-b]furan-10(9bH)-one]",2.08 µg/mL
18,"CC(C)c1ccc2c(c1)OC1(O)c3cccc(N4CCCCC4)c3C(=O)C21O (centres unmarked) [Example 141, 4b,9b-Dihydroxy-7-isopropyl-1-piperidinyl-4bH-benzo[d]indeno-[1,2-b]furan-10(9bH)-one]",3.47 µg/mL
19,"CC(C)c1ccc2c(c1)OC1(O)c3cccc(N4CCOCC4)c3C(=O)C21O (centres unmarked) [Example 142, 4b,9b-Dihydroxy-7-isopropyl-1-morpholinyl-4bH-benzo[d]indeno[1,2-b]furan-10(9bH)-one]",18.7 µg/mL
20,"CC(C)C(=O)N1c2cc(C(C)C)ccc2C2(O)C(=O)c3ccccc3C12O (centres unmarked) [Example 145, 4b,9b-Dihydroxy-5-isobutyryl-7-isopropyl-5,9b-dihydro-4bH-indeno[1,2-b]indol-10-one]",18.3 µg/mL
21,"CC(C)c1ccc2c(c1)OC1(O)c3ccc(N4CCC(O)CC4)cc3C(=O)C21O (centres unmarked) [Example 146, 4b,9b-Dihydroxy-7-isopropyl-2-(hydroxypiperidinyl)-4bH-benzo[d]indeno[1,2-b]furan-10(9bH)-one]",1.53 µg/mL
22,"CC(C)c1ccc2c(c1)OC1(O)c3cccc(N4CCC(O)CC4)c3C(=O)C21O (centres unmarked) [Example 147, 4b,9b-Dihydroxy-1-(4-hydroxypiperidin-1-yl)-7-isopropyl-4bH-benzo[d]indeno[1,2-b]furan-10(9bH)-one]",32.9 µg/mL
23,"COc1ccc(CN2CCN(c3ccc4c(c3)C(=O)C3(O)c5ccc(C(C)C)cc5OC43O)CC2)cc1 (centres unmarked) [Example 148, 4b,9b-Dihydroxy-7-isopropyl-2-(4-(4-methoxybenzyl)piperazin-1-yl)-4bH-benzo[d]indeno[1,2-b]furan-10(9bH)-one]",1.72 µg/mL
24,"COc1ccc(CN2CCN(c3cccc4c3C(=O)C3(O)c5ccc(C(C)C)cc5OC43O)CC2)cc1 (centres unmarked) [Example 149, 4b,9b-Dihydroxy-7-isopropyl-1-(4-(4-methoxybenzyl)piperazin-1-yl)-4bH-benzo[d]indeno[1,2-b]furan-10(9bH)-one]",8.48 µg/mL
25,"CC(C)c1ccc2c(c1)OC1(O)c3ccc(N(C)C)cc3C(=O)C21O (centres unmarked) [Example 150, 2-(Dimethylamino)-4b,9b-dihydroxy-7-isopropyl-4bH-benzo[d]indeno[1,2-b]-furan-10(9bH)-one]",1.32 µg/mL
26,"CC(C)c1ccc2c(c1)OC1(O)c3cccc(N(C)C)c3C(=O)C21O (centres unmarked) [Example 151, 1-(Dimethylamino)-4b,9b-dihydroxy-7-isopropyl-4bH-benzo[d]indeno[1,2-b]-furan-10(9bH)-one]",1.52 µg/mL
27,"CC(C)c1ccc2c(c1)OC1(O)c3ccccc3/C(=N\N)C21O (centres unmarked) [Example 152, 10-Hydrazono-7-isopropyl-9b,10-dihydro-4bH-benzo[d]indeno[1,2-b]furan-4b,9b-diol]",0.9 µg/mL
28,"CC(C)c1cc(C(C)C)c2c(c1)C1(O)C(=O)c3c(N)cccc3C1(O)O2 (centres unmarked) [Example 157, 1-Amino-4b,9b-dihydroxy-6,8-diisopropyl-4bH-benzo[d]indeno[1,2-b]furan-10(9bH)-one]",> 100 µg/mL
29,"CC(C)c1ccc2c(c1)OC1(O)c3cccc(N)c3C(=O)C21NC(=O)Cc1ccc(-c2ccccc2)cc1 (centres unmarked) [Example 182, 2-([1,1′-Biphenyl]-4-yl)-N-(1-amino-4b-hydroxy-7-isopropyl-10-oxo-9b,10-dihydro-4bH-indeno[1,2-b]benzofuran-9b-yl)acetamide]",6.42 µg/mL
